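Five compound concentrations were applied to cells in 96-well plates for 48 hours; endpoints were derived by simple linear interpolation of the resulting dose-response curve. GI50 marks 50% less growth. TGI is the concentration that stops growth completely.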
Legend:
Assay in all cases: NCI-60 cell line screen, 48 h
M14 melanoma = test system: M14 melanoma
A549 NSCLC = test system: A549 NSCLC
K-562 leukemia = test system: K-562 leukemia
NCI-H23 lung = test system: NCI-H23 lung
786-0 renal = test system: 786-0 renal
OVCAR-8 ovarian = test system: OVCAR-8 ovarian
HT29 colon = test system: HT29 colon
OVCAR-4 ovarian = test system: OVCAR-4 ovarian
SK-MEL-2 melanoma = test system: SK-MEL-2 melanoma
RPMI-8226 leukemia = test system: RPMI-8226 leukemia

SMILES	GI50 (M14 melanoma)	TGI (M14 melanoma)	GI50 (A549 NSCLC)	TGI (A549 NSCLC)	GI50 (K-562 leukemia)	TGI (K-562 leukemia)	GI50 (NCI-H23 lung)	TGI (NCI-H23 lung)	GI50 (786-0 renal)	TGI (786-0 renal)	GI50 (OVCAR-8 ovarian)	TGI (OVCAR-8 ovarian)	GI50 (HT29 colon)	TGI (HT29 colon)	GI50 (OVCAR-4 ovarian)	TGI (OVCAR-4 ovarian)	GI50 (SK-MEL-2 melanoma)	TGI (SK-MEL-2 melanoma)	GI50 (RPMI-8226 leukemia)	TGI (RPMI-8226 leukemia)
Cn1cc(-c2csc(-c3ccc(Cl)cc3)n2)c2cccnc21	12 µM	24.8 µM	17.6 µM	46.4 µM	12.9 µM	38.3 µM	13.7 µM	31 µM	16.3 µM	32.4 µM	22.8 µM	66.6 µM	13.2 µM	25.9 µM	21.9 µM	60.8 µM	17.4 µM	42.5 µM	12.3 µM	78.6 µM
COc1cc(C2CC(c3ccc(Cl)cc3)=NN2C(C)=O)ccc1Oc1ccnc2cc(Cl)ccc12 (stereo unspecified)	> 100 µM	> 100 µM	–	–	> 100 µM	> 100 µM	–	–	2.63 µM	> 100 µM	–	–	–	–	–	–	15.9 µM	82.8 µM	> 100 µM	> 100 µM
CCCCS(=O)(=O)c1cc(Nc2ccc(O)c3c2C(=O)c2ccccc2C3=O)ccc1C	2.87 µM	> 100 µM	1.88 µM	> 100 µM	–	–	–	–	> 100 µM	> 100 µM	> 100 µM	> 100 µM	> 100 µM	> 100 µM	–	–	26.5 µM	> 100 µM	> 100 µM	> 100 µM
O=C(O)C(Cc1ccccc1)N1C(=O)/C(=C/C(Cl)=C/c2ccc([N+](=O)[O-])cc2)SC1=S (stereo unspecified)	–	–	3.46 µM	> 100 µM	3.01 µM	> 100 µM	2.13 µM	4.86 µM	2.2 µM	5.02 µM	3.13 µM	> 100 µM	2.84 µM	8.47 µM	3.21 µM	> 100 µM	1.87 µM	4.5 µM	3.22 µM	> 100 µM
COc1cc(N)c(Cl)cc1C(=O)N[C@@H]1CCN(CCCOc2ccc(F)cc2)C[C@@H]1OC	27.4 µM	88.8 µM	> 100 µM	> 100 µM	26.3 µM	74.1 µM	> 100 µM	> 100 µM	55.5 µM	> 100 µM	> 100 µM	> 100 µM	20.5 µM	> 100 µM	> 100 µM	> 100 µM	> 100 µM	> 100 µM	–	–
CN(C)C(=S)/N=c1\ssc(=Nc2ccccc2)n1-c1ccccc1	–	44.2 µM	–	> 100 µM	–	> 100 µM	–	> 100 µM	–	37.1 µM	–	68.7 µM	–	> 100 µM	–	18.9 µM	–	> 100 µM	–	–
COC(=O)c1c(C(=O)O)c(-c2ccccc2)c(-c2ccccc2)c(-c2ccccc2)c1-c1ccccc1	> 100 µM	> 100 µM	> 100 µM	> 100 µM	87 µM	> 100 µM	> 100 µM	> 100 µM	> 100 µM	> 100 µM	> 100 µM	> 100 µM	> 100 µM	> 100 µM	–	–	> 100 µM	> 100 µM	88.8 µM	> 100 µM
Nc1ccc(C(=O)N/C(=C\c2ccc3c(c2)OCO3)c2nc3ccccc3s2)cc1	–	23.9 µM	–	31 µM	–	38 µM	–	–	–	23.7 µM	–	28.9 µM	–	25.8 µM	–	25.1 µM	–	28 µM	–	–
COC(=O)N[C@@H](C)CNc1nccc(-c2cn(C(C)C)nc2-c2cc(Cl)cc(NS(C)(=O)=O)c2F)n1	< 0.01 µM	–	48.2 µM	> 100 µM	33.6 µM	> 100 µM	> 51.3 µM	> 100 µM	14.2 µM	> 100 µM	> 100 µM	> 100 µM	< 0.01 µM	> 100 µM	> 100 µM	> 100 µM	–	–	> 70 µM	> 100 µM
CCOC(=N)CC(=O)Nc1ccccc1CC	–	> 100 µM	–	> 100 µM	–	> 100 µM	–	> 100 µM	–	> 100 µM	–	> 100 µM	–	> 100 µM	–	> 100 µM	–	> 100 µM	–	–
COc1ccc(OCC(=O)O)c2c1CCC(C)C2=O (stereo unspecified)	–	> 100 µM	–	> 100 µM	–	> 100 µM	–	–	–	> 100 µM	–	> 100 µM	–	> 100 µM	–	> 100 µM	–	> 100 µM	–	> 100 µM
c1ccc(N2CCN(CCN3CCc4c([nH]c5ccccc45)C3c3cccnc3)CC2)cc1 (stereo unspecified)	–	> 100 µM	–	> 100 µM	–	> 100 µM	–	> 100 µM	–	> 100 µM	–	> 100 µM	–	> 100 µM	–	> 100 µM	–	–	–	> 100 µM
Fc1ccc(-c2ncn(C3CCNCC3)c2-c2ccnc(Oc3ccc(Cl)cc3)n2)cc1	4.65 µM	9.09 µM	5.23 µM	12.8 µM	4.7 µM	11.2 µM	–	–	4.54 µM	10.8 µM	4.14 µM	8.99 µM	3.25 µM	6.68 µM	4.15 µM	9.69 µM	4.45 µM	8.67 µM	5.44 µM	15.3 µM
O=C(CC1(O)CCCCC1)OC1CCCC1	–	> 100 µM	–	> 100 µM	–	–	–	> 100 µM	–	> 100 µM	–	> 100 µM	–	> 100 µM	–	> 100 µM	–	> 100 µM	–	–
C[C@@H]1CC2(C[C@@H](C)C3[C@@H](CC4(C)CCCC5C6=CC(O)(CC[C@]34C)OC6=CC(=O)OC5(C)C)O2)OC1=O (stereo partly specified)	–	> 100 µM	–	> 100 µM	–	> 100 µM	–	> 100 µM	–	> 100 µM	–	–	–	–	–	> 100 µM	–	> 100 µM	–	> 100 µM
COC(OC)c1cccnc1C	–	> 100 µM	–	> 100 µM	–	> 100 µM	–	> 100 µM	–	> 100 µM	–	> 100 µM	–	> 100 µM	–	> 100 µM	–	> 100 µM	–	–
CC(NC1CCCC[C@@H]1O)c1ccccc1 (stereo partly specified)	–	> 100 µM	–	> 100 µM	–	> 100 µM	–	–	–	> 100 µM	–	> 100 µM	–	> 100 µM	–	> 100 µM	–	> 100 µM	–	> 100 µM

Source: PubChem BioAssay (NCI)
